Results on one substance are retold here after patent publication US20190134120A1, “METHODS FOR THE TREATMENT OF BLADDER CANCER” (Viralytics Limited, priority 2013, published 2019).

The test system of data set [1] is bladder cancer cell lines. Description: Combination of CVA21 and chemotherapy on cell proliferation, combination index (CalcuSyn). The data set is classed as cell-based, Human. The conditions noted are these: for combination index values: fixed ratio design. On the procedure: FIG. 2 c): The effect of the combination of CVA21 and chemotherapy on cell proliferation was assessed by calculating combination index (CI) values using CalcuSyn software (Biosoft).
Combining CVA21 with the chemotherapy agents Mitomycin C and Gemcitabine has shown surprising synergy. […] Preliminary data using the same method has found from the 50% to the 75% effect levels, combination index values of 0.69-0.83 with Gemcitabine (FIG. 2b). In brief, 5637/T24/TCCSUP-1 cells were plated at 1×10^4 cells per well (100 μL) of a 96 well tray and incubated at 37° C. for 24 hrs. Mitomycin C was diluted in 10% FCS medium in doubling dilutions from between 2.8 to 0.02 ug/ml for 5637 cells and between 3.36 to 0.03 ug/ml for T24 cells. CVA21 was then diluted between MOI 25-0.196 in doubling dilutions using each dilution of Mitomycin C. The cells were then treated with each dilution of CVA21/Mitomycin C and incubated for 72 hrs. The medium was removed and 100 μl of diluted MTS reagent (Promega) was added. The plates were then incubated for 1-4 hrs and absorbance read at 492 nm.

Data set [2] relates to late stage melanoma patients. The conditions noted are these: Phase I, intratumorally administered, cited from earlier work.
Data set [3] is classed as physicochemical, Human. The conditions noted are these: 3x10^6 TCID50; 37 C for one hour in healthy donor urine. As to the method: Human cancer bladder tissue was disaggregated and primary tumour cells were isolated. These were tested for bladder tumour markers (Cytokeratin 7) (data not shown). Primary tumour cells were infected at varying MOIs and incubated at 37 C for 72 hours then photographed and analysed by MTS ([3-(4,5-dimethylthiazol-2-yl)-5-(3-carboxymethoxyphenyl)-2-(4-sulfophenyl)-2H-tetrazolium, inner salt) assay. (A) CVA21 MOI 3. (B) Uninfected cells. (C) MTS assay. (D) CVA21 (3×10^6 TCID50) was incubated at 37 C for one hour in healthy donor urine. Resulting virus was titrated by TCID50 on SK-MEL-28 cells for 5 days.
In brief, SK-MEL-28 cells were plated at 1×10^4 cells per well (100 μL) of a 96 well tray in 10% DMEM and incubate at 37° C. o/n. 37.5 ul of stock CVA21 virus (7.75e7 TCID50/ml) was added 462.5 ul of normal health urine or Hanks or PBS or HANKS for 1 hrs at 37° C. After which urine/CVA21 was serially diluted 1:10 in 2% DMEM. The media was removed from the cells and 100 ul of each dilution was added to one of ten wells. The assay was then incubated at 37° C. for 5 days, after which the media was removed from the cells and 100 ul of 0.1% Glutaldehyde (Sigma) in PBS was added. […]. TCID50 is calculated by the Spearman & Kärber algorithm as described in Hierholzer & Killington (1996), Virology Methods Manual, p. […]

Coxsackievirus A21 [CVA21]: the “synergy with sequential dosing” value in data set [1] (CVA21 administered 4 hours after MMC, compared with concomitant dosing) was “synergy is well maintained”. For the same substance, the combination index values is given as 0.69-0.83 in data set [1] (CVA21 with Gemcitabine, from the 50% to the 75% effect levels, preliminary data) and 0.40-0.55 in data set [1] (CVA21 with Mitomycin C, from the 50% to the 90% effect levels). In addition, the tolerability result in data set [2] (humans) is “well tolerated”. In addition, the “patients with stabilization or reduction in injected tumour volumes” value in data set [2] (late stage melanoma) is reported as 55.55%. Further, the “stability in human urine” value in data set [3] is reported as “stable”.
